Measurements published in PubChem BioAssay AID330 (DTP/NCI, 2004).
“And” between values parts separate entries of the source, which are not always exact repeats. Equal values may be shown once. Inconclusive results and toxic doses are left out. Rule for the calls: active = survival T/C of 150% or more; inactive = T/C below 125% in these data.

System: P388 leukemia ip, CD2F1 mice, survival T/C
Assay: NCI In Vivo Anticancer Drug Screen. Data for tumor model P388 Leukemia (intraperitoneal) in CD2F1 (CDF1) mice
Details: endpoint: median survival time, higher = longer survival
In short: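 Mice carrying the transplanted tumor received test compound or vehicle. Survival was recorded in each group, and the value is the treated-group measurement divided by that of the vehicle-treated control group.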

[1] = dose: 60.0 mg/kg/injection, schedule: Q01DX005 (ip), vehicle: saline with Tween-80
[2] = dose: 120.0 mg/kg/injection, schedule: Q01DX005 (ip), vehicle: saline with Tween-80
[3] = dose: 15.0 mg/kg/injection, schedule: Q01DX005 (ip), vehicle: saline with Tween-80
[4] = dose: 50.0 mg/kg/injection, schedule: Q01DX009 (ip), vehicle: suspension in saline
[5] = dose: 100.0 mg/kg/injection, schedule: Q01DX009 (ip), vehicle: suspension in saline
[6] = dose: 200.0 mg/kg/injection, schedule: Q01DX009 (ip), vehicle: suspension in saline
[7] = dose: 50.0 mg/kg/injection, schedule: Q01DX009 (ip), vehicle: saline with Tween-80
[8] = dose: 100.0 mg/kg/injection, schedule: Q01DX009 (ip), vehicle: saline with Tween-80
[9] = dose: 200.0 mg/kg/injection, schedule: Q01DX009 (ip), vehicle: saline with Tween-80
[10] = dose: 12.5 mg/kg/injection, schedule: Q01DX009 (ip), vehicle: saline with Tween-80
[11] = dose: 25.0 mg/kg/injection, schedule: Q01DX009 (ip), vehicle: saline with Tween-80
[12] = dose: 50.0 mg/kg/injection, schedule: Q01DX005 (ip), vehicle: saline with Tween-80
[13] = dose: 100.0 mg/kg/injection, schedule: Q01DX005 (ip), vehicle: saline with Tween-80
[14] = dose: 200.0 mg/kg/injection, schedule: Q01DX005 (ip), vehicle: saline with Tween-80
[15] = dose: 30.0 mg/kg/injection, schedule: Q01DX005 (ip), vehicle: saline with Tween-80
[16] = dose: 60.0 mg/kg/injection, schedule: Q01DX005 (ip), vehicle: Klucel (hydroxypropylcellulose) (HPC)

Measured: T/C

O=C(CCC(=O)Nc1ccccc1[N+](=O)[O-])CC(=O)c1ccc(Br)cc1
inactive: [1] 105 % of control | [2] 106 % of control | dose: 240.0 mg/kg/injection, schedule: Q01DX005 (ip), vehicle: saline with Tween-80 106 % of control

C[n+]1ccc2ccccc2c1SC1CCC2CC3CC2C1C3 (stereo unspecified)
inactive: dose: 7.5 mg/kg/injection, schedule: Q01DX005 (ip), vehicle: saline with Tween-80 106 % of control | [3] 110 % of control

CCOC(=O)N1C=CC(CC(=O)N(CC)CC)C=C1 (tested in a mixture with another compound)
inactive: dose: 60.0 mg/kg/injection, schedule: Q01DX005 (ip), vehicle: saline 102 % of control | dose: 120.0 mg/kg/injection, schedule: Q01DX005 (ip), vehicle: saline 96 % of control | dose: 240.0 mg/kg/injection, schedule: Q01DX005 (ip), vehicle: saline 108 % of control

CCCCN1C(=S)NC(OC)C1(C)C (stereo unspecified)
inactive: [4] 100 % of control | [5] 94 % of control | [6] 100 % of control

CC[N+]1(CC)c2ccccc2CC1C (stereo unspecified)
inactive: dose: 6.25 mg/kg/injection, schedule: Q01DX001 (ip), vehicle: saline 97 % of control | dose: 12.5 mg/kg/injection, schedule: Q01DX001 (ip), vehicle: saline 101 % of control | dose: 25.0 mg/kg/injection, schedule: Q01DX001 (ip), vehicle: saline 104 % of control

CCCOC(=O)c1ccccc1C(=O)O
inactive: [7] 105 % of control | [8] 104 % of control | [9] 101 % of control

NC1=NC2CC(N1)c1ccc(O)cc1O2 (stereo unspecified)
inactive: dose: 50.0 mg/kg/injection, schedule: Q01DX009 (ip), vehicle: saline 109 % of control | dose: 100.0 mg/kg/injection, schedule: Q01DX009 (ip), vehicle: saline 110 % of control

CSc1nc(N)c(N=O)c(N)n1
inactive: dose: 50.0 mg/kg/injection, schedule: Q04DX002 (ip), vehicle: suspension in saline 100 % of control | dose: 100.0 mg/kg/injection, schedule: Q04DX002 (ip), vehicle: suspension in saline 101 % of control | dose: 200.0 mg/kg/injection, schedule: Q04DX002 (ip), vehicle: suspension in saline 104 % of control

NS(=O)(=O)c1ccc(Nc2c3ccccc3nc3ccccc23)cc1
inactive: dose: 100.0 mg/kg/injection, schedule: Q04DX003 (ip), vehicle: Klucel (hydroxypropylcellulose) (HPC) 110 % of control and 86 % of control (2×) | dose: 118.0 mg/kg/injection, schedule: Q04DX003 (ip), vehicle: Klucel (hydroxypropylcellulose) (HPC) 93 % of control | dose: 200.0 mg/kg/injection, schedule: Q04DX003 (ip), vehicle: Klucel (hydroxypropylcellulose) (HPC) 118 % of control and 90 % of control | dose: 236.0 mg/kg/injection, schedule: Q04DX003 (ip), vehicle: Klucel (hydroxypropylcellulose) (HPC) 99 % of control | dose: 400.0 mg/kg/injection, schedule: Q04DX003 (ip), vehicle: Klucel (hydroxypropylcellulose) (HPC) 120 % of control and 88 % of control and 95 % of control | dose: 472.0 mg/kg/injection, schedule: Q04DX003 (ip), vehicle: Klucel (hydroxypropylcellulose) (HPC) 99 % of control

Cc1cc(N(C)C)nc2cc(N(C)C)ccc12
inactive: [10] 93 % of control | [11] 103 % of control | [7] 95 % of control and 98 % of control

CC(CCc1ccc(O)cc1)NCCc1ccc(O)c(O)c1 (stereo unspecified)
inactive: [4] 100 % of control | [5] 104 % of control | [6] 115 % of control

NC(C(=O)O)c1cc(=O)[nH]o1 (stereo unspecified)
inactive: dose: 2.5 mg/kg/injection, schedule: Q01DX009 (ip), vehicle: Klucel (hydroxypropylcellulose) (HPC) 98 % of control | dose: 5.0 mg/kg/injection, schedule: Q01DX009 (ip), vehicle: Klucel (hydroxypropylcellulose) (HPC) 93 % of control | dose: 10.0 mg/kg/injection, schedule: Q01DX009 (ip), vehicle: Klucel (hydroxypropylcellulose) (HPC) 101 % of control

Cc1cc(C)c(C#N)c(SSC(Cl)(Cl)Cl)n1
inactive: [12] 96 % of control | [13] 93 % of control | [14] 91 % of control

Nc1nc(N)c(-c2cccc(Cl)c2)c(CBr)n1
inactive: [10] 113 % of control | [11] 114 % of control

CC(C)(C)SSC(=S)C1CCCCC1
inactive: dose: 25.0 mg/kg/injection, schedule: Q01DX005 (ip), vehicle: saline with Tween-80 108 % of control | [12] 106 % of control and 116 % of control | [13] 108 % of control and 118 % of control | [14] 117 % of control

COC(=O)C(C)NC(=O)Cc1ccccc1 (stereo unspecified)
inactive: dose: 100.0 mg/kg/injection, schedule: Q04DX003 (ip), vehicle: saline with Tween-80 104 % of control | dose: 200.0 mg/kg/injection, schedule: Q04DX003 (ip), vehicle: saline with Tween-80 100 % of control | dose: 400.0 mg/kg/injection, schedule: Q04DX003 (ip), vehicle: saline with Tween-80 90 % of control

O=C(OCc1ccccc1)C(=O)c1c(O)n(-c2ccccc2)c2ccccc12
inactive: dose: 100.0 mg/kg/injection, schedule: Q04DX002 (ip), vehicle: saline + alcohol 99 % of control | dose: 200.0 mg/kg/injection, schedule: Q04DX002 (ip), vehicle: saline + alcohol 100 % of control | dose: 400.0 mg/kg/injection, schedule: Q04DX002 (ip), vehicle: saline + alcohol 96 % of control

COc1nc2ccccc2nc1OC
inactive: [8] 97 % of control | [9] 100 % of control | dose: 400.0 mg/kg/injection, schedule: Q01DX009 (ip), vehicle: saline with Tween-80 97 % of control

CN(C)C1=CC(=Nc2ccccc2)SC(C)(C)C1
inactive: [3] 100 % of control | [15] 100 % of control | [16] 100 % of control | [1] 99 % of control

COc1cc2c(cc1OC)[C@H](Cc1ccc(Oc3cc4c(cc3O)-c3c(OC)c(OC)cc5c3[C@@H](C4)N(C)CC5)cc1)N(C)CC2
inactive: dose: 11.88 mg/kg/injection, schedule: Q01DX005 (ip), vehicle: Klucel (hydroxypropylcellulose) (HPC) 98 % of control | dose: 23.75 mg/kg/injection, schedule: Q01DX005 (ip), vehicle: Klucel (hydroxypropylcellulose) (HPC) 92 % of control | dose: 47.5 mg/kg/injection, schedule: Q01DX005 (ip), vehicle: Klucel (hydroxypropylcellulose) (HPC) 93 % of control | dose: 95.0 mg/kg/injection, schedule: Q01DX005 (ip), vehicle: Klucel (hydroxypropylcellulose) (HPC) 105 % of control

Nc1ccc(S(=O)(=O)Nc2c(N)[nH]c(=S)[nH]c2=O)cc1
inactive: dose: 15.0 mg/kg/injection, schedule: Q01DX005 (ip), vehicle: Klucel (hydroxypropylcellulose) (HPC) 97 % of control | [3] 115 % of control | dose: 30.0 mg/kg/injection, schedule: Q01DX005 (ip), vehicle: Klucel (hydroxypropylcellulose) (HPC) 97 % of control | [15] 105 % of control | [16] 92 % of control | [1] 98 % of control | dose: 120.0 mg/kg/injection, schedule: Q01DX005 (ip), vehicle: Klucel (hydroxypropylcellulose) (HPC) 100 % of control | [2] 100 % of control

CCCCCCCC[N+](C)(C)CC#CC[N+](C)(C)CCCCCCCC
inactive: dose: 6.25 mg/kg/injection, schedule: Q04DX003 (ip), vehicle: saline 96 % of control | dose: 12.5 mg/kg/injection, schedule: Q04DX003 (ip), vehicle: saline 103 % of control

COC(=O)C(CC=C(C)C)(CC=C(C)C)C(C)=O
inactive: dose: 100.0 mg/kg/injection, schedule: Q04DX002 (ip), vehicle: saline 104 % of control | dose: 200.0 mg/kg/injection, schedule: Q04DX002 (ip), vehicle: saline 100 % of control | dose: 400.0 mg/kg/injection, schedule: Q04DX002 (ip), vehicle: saline 113 % of control
